According to patent US4313943A, “7-Chloro-2,3-dihydro-5-phenyl-1-propargyl-1H-1,4-benzodiazepine-2-one, and a pharmaceutical composition thereof” (priority 1972, dated 1982):

Experiment: Acute toxicity in the rat (oral)
Settings: in vivo
Protocol: The test compounds shown in Table 2 were administered orally to male mice and rats in the form of a suspension in a 1% solution of sodium carboxymethyl cellulose. The LD50 (lethal dose 50%) was calculated by the method of Litchfield and Wilcoxon.

C#CCN1C(=O)CN=C(c2ccccc2)c2cc(Cl)ccc21 [Compound 1, 7-chloro-2,3-dihydro-5-phenyl-1-propargyl-1H-1,4-benzodiazepin-2-one] gave an LD50 of 6490 mg/kg.
